Laboratory results published in ChEMBL document CHEMBL1201862, “PubChem BioAssay data set” (2004).
Activity calls are given as the source filed them.

Columns and labels:
[1] = test system: Streptococcus sp. 'group A'; experiment: growth inhibition of control SK(-) GAS strain, dose response, counter-screen for streptokinase expression inhibitor project, luminescence, kanamycin, BacTiterGlo, confirmation (AID 1900); type: functional, organism-based
[2] = Luminescence Cell-Based Dose Retest to Confirm Inhibitors of Cancer Stem Cells. [Related pubchem assays (depositor defined):AID2717, AID2721]; type: functional; details: Homo sapiens
Streptococcus [3] = experiment: Group A Streptococcus viability loss, dose response, counter-screen for streptokinase expression inhibitor project, luminescence, BacTiterGlo (AID 1915); type: functional, organism-based;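 note: potency for reduction of bacterial viability or growth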
Streptococcus [4] = experiment: Luminescence Microorganism-Based Dose Response Follow up to Identify Compounds Cytotoxic to Streptococcus. [Related pubchem assays: 1677 (Project Summary), 1915, 1914, 1902 (Retest at Dose), 1900 (Counter Screen), 1662 (Primary HTS)]; type: functional, organism-based
[5] = cytotoxicity in HMLE control line with eGFP shRNA, dose response, counter-screen for HMLE_sh_ECad selective toxicity project, cell-based, HMLE_sh_eGFP, luminescence (AID 463074); type: functional, Homo sapiens;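 note: HMLE human mammary epithelial cells expressing control shRNA against eGFP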
Streptokinase A = molecular target: T1, Streptokinase A (Streptococcus pyogenes serotype M1, UniProt P10520); experiment: S. pyogenes streptokinase expression inhibitors, potency, dose response, plasminogen activation absorbance, OD405 (AID 1914); type: functional, Streptococcus pyogenes M1 GAS;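 note: secreted streptokinase activity via plasminogen activation per viability signal from cell pellet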
T1 sequence (P10520 whole entry): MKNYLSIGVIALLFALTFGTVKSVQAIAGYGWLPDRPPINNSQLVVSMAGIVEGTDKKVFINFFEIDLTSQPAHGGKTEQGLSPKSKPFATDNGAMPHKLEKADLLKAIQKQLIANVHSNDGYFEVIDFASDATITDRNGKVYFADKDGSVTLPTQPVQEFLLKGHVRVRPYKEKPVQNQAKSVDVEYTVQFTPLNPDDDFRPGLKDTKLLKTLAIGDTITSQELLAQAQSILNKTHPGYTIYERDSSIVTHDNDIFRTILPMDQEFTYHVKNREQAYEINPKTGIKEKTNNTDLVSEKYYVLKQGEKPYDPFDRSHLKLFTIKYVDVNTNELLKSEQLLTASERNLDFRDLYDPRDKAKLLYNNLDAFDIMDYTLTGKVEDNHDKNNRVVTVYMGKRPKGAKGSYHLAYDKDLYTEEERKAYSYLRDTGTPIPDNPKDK

[6] = molecular target: UDP-galactopyranose mutase (Mycobacterium tuberculosis, UniProt P9WIQ1); experiment: Inhibitors of Mycobacterium tuberculosis UDP-galactopyranose mutase (UGM) enzyme Measured in Biochemical System Using Plate Reader - 2105-02_Inhibitor_Dose_CherryPick_Activity. [Related pubchem assays (depositor defined):AID504439]
[7] = molecular target: T2, Tyrosine-protein phosphatase non-receptor type 7 (Homo sapiens, UniProt P35236); experiment: HePTP (PTPN7) phosphatase inhibitor potency, SAR follow-up, biochemical, set 2 (AID 449736); type: functional
T2 sequence (P35236 whole entry): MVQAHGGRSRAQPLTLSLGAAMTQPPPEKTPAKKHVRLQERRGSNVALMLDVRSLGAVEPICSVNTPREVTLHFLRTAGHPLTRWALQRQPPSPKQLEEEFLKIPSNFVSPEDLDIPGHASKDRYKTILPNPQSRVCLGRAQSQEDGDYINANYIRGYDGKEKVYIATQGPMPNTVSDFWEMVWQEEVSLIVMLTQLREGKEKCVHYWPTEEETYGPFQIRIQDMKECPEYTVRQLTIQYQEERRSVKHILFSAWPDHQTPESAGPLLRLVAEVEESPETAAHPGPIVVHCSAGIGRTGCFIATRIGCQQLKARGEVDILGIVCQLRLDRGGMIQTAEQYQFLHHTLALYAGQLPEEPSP

[8] = molecular target: Dual specificity protein phosphatase 6 (Rattus norvegicus, UniProt Q64346); type: functional;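 note: confirmatory in vitro dose-response testing of MKP-3 inhibition; recombinant His-tagged MKP-3 made in E. coli BL21 with OMFP substrate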
[9] = molecular target: Tyrosine-protein phosphatase non-receptor type 12 (Homo sapiens, UniProt Q05209); experiment: SAR Selectivity Analysis of small molecule inhibitors of PEST using pCAP in a fluorescence assay. [Related pubchem assays (depositor defined):AID1779, AID1784, AID2135]; type: functional
[10] = molecular target: T3, Tyrosine-protein phosphatase non-receptor type 22 (Homo sapiens, UniProt Q9Y2R2); experiment: SAR LYP1 Fluorescent Assay using OMFP substrate for In Vitro dose response studies - Set 3. [Related pubchem assays (depositor defined):AID1779, AID1784, AID2140, AID2686]; type: functional
[11] = molecular target: T2, Tyrosine-protein phosphatase non-receptor type 7; experiment: redox-dependent HePTP inhibition, mechanism study, biochemical, fluorescence (AID 2068); type: functional
[12] = molecular target: T3, Tyrosine-protein phosphatase non-receptor type 22; experiment: LYP (PTPN22) phosphatase inhibitor potency, SAR follow-up, biochemical, pCAP fluorogenic substrate, fluorescence, set 3 (AID 449727); type: functional
Escherichia coli = experiment: microbe, parasite or virus in culture
[13] = molecular target: Envelope glycoprotein gp160 (Human immunodeficiency virus 1, UniProt Q6QLK5); experiment: inhibitors of HIV fusion peptide binding, primary screen, biochemical, uHTS, fluorescence dequenching (AID 1986)
[14] = molecular target: T4, Apoptotic protease-activating factor 1 (Homo sapiens, UniProt O14727); experiment: activation of Apaf-1 mediated apoptosis – fluorescent, uHTS hits, dose response (AID 588554); type: functional
T4 sequence (O14727 whole entry): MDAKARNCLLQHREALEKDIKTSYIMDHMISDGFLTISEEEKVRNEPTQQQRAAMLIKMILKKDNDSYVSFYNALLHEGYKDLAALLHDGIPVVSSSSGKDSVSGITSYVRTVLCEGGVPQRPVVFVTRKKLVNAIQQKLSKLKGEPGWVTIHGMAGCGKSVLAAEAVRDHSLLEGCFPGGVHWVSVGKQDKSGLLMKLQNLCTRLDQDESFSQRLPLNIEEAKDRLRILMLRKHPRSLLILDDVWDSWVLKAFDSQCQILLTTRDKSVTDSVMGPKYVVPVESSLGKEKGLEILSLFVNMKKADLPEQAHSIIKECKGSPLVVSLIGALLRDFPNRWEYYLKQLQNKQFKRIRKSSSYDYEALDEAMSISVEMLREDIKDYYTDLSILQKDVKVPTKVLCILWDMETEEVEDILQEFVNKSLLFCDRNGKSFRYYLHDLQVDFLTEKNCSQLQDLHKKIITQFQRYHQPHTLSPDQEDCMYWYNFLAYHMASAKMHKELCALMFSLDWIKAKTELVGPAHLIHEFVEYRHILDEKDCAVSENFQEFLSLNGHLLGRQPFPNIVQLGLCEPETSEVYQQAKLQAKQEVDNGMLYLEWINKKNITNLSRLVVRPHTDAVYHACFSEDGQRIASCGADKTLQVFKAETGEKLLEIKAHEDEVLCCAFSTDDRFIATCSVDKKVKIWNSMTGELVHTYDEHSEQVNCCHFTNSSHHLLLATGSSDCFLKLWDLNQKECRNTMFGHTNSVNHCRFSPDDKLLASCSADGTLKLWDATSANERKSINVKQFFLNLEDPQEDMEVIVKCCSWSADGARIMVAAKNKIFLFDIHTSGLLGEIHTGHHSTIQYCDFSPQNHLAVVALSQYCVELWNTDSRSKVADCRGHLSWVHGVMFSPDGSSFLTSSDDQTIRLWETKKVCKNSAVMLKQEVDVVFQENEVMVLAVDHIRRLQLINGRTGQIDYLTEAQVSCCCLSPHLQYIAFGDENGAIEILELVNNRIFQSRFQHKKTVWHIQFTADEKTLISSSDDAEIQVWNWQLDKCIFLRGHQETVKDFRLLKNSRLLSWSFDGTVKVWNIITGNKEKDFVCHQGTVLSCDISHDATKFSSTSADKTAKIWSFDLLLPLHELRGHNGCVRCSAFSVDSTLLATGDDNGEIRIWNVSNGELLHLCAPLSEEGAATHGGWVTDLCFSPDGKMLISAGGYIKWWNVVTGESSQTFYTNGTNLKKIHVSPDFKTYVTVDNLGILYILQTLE

CAAX prenyl protease 2 [15] = molecular target: CAAX prenyl protease 2 (Homo sapiens, UniProt Q9Y256); experiment: human Rce1 protease inhibitors, dose response, biochemical, yeast membranes, quenched-peptide fluorescence, cherry-pick (AID 588849)
Trypsin = Trypsin (Sus scrofa, UniProt P00761); experiment: porcine trypsin inhibitors, dose response, selectivity assay for Rce1 protease inhibitor project, biochemical, quenched peptide fluorescence, cherry-pick (AID 488789)
CAAX prenyl protease 2 [16] = molecular target: CAAX prenyl protease 2 (Saccharomyces cerevisiae S288c, UniProt Q03530); type: biochemical
X-box-binding protein 1 = molecular target: T5, X-box-binding protein 1 (Homo sapiens, UniProt P17861); type: functional, Cricetulus griseus;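 note: confirmatory dose-response counter-screen serving a CHOP assay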
T5 sequence (P17861 whole entry): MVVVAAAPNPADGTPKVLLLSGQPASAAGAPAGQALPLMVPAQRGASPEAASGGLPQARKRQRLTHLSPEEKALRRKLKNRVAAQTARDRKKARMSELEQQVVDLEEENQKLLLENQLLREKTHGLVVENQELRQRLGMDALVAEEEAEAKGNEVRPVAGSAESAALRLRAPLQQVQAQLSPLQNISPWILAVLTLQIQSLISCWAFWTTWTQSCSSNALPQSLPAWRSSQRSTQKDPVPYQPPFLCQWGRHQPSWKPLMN

BJ [17] = experiment: cytotoxicity toward BJ-TERT fibroblasts, dose response, cell-based, RAS-independent, luminescence (AID 1933); type: functional; details: Homo sapiens
BJ [18] = experiment: cells; type: functional, cell-based; details: Homo sapiens
A-375 = experiment: MITF: Counter assay: A375 proliferation Measured in Cell-Based System Using Plate Reader - 2084-03_Inhibitor_Dose_DryPowder_Activity. [Related pubchem assays (depositor defined):AID488944]; type: functional; details: Homo sapiens
[19] = molecular target: T6, Heat shock factor protein 1 (Mus musculus, UniProt P38532); experiment: inhibition of MG132-induced HSE-luciferase signal, confirmation, cell-based, NIH3T3, luminescence, dose retest (AID 2382); type: functional;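 note: NIH3T3 fibroblasts with HSF1-driven luciferase reporter stressed by proteasome inhibitor MG132; luminescence from HSF1-driven luciferase expression after 8 hours of MG132 stress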
T6 sequence (P38532 whole entry): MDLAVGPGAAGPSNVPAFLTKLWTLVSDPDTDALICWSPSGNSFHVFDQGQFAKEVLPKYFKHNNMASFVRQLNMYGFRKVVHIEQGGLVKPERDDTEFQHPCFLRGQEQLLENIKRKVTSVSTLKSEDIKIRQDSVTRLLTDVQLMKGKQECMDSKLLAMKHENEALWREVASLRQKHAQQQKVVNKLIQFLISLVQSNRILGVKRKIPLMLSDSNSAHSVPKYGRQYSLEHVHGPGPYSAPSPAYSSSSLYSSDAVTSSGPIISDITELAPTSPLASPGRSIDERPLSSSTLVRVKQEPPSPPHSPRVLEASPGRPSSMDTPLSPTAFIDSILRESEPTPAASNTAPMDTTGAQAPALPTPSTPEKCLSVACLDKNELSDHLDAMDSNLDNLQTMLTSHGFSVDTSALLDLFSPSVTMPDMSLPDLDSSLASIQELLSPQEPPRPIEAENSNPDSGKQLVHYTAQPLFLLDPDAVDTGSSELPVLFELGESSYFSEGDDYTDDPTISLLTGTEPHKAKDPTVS

[20] = molecular target: DNA damage-inducible transcript 3 protein (Mus musculus, UniProt P35639); type: functional, Cricetulus griseus
[21] = molecular target: T7, Microphthalmia-associated transcription factor (Homo sapiens, UniProt O75030); experiment: TRPM1 promoter luciferase signal decrease, dose response, MITF inhibitor project, cell-based, SK-MEL-5, cherry-picked, set 3 (AID 493073); type: functional
T7 sequence (O75030 whole entry): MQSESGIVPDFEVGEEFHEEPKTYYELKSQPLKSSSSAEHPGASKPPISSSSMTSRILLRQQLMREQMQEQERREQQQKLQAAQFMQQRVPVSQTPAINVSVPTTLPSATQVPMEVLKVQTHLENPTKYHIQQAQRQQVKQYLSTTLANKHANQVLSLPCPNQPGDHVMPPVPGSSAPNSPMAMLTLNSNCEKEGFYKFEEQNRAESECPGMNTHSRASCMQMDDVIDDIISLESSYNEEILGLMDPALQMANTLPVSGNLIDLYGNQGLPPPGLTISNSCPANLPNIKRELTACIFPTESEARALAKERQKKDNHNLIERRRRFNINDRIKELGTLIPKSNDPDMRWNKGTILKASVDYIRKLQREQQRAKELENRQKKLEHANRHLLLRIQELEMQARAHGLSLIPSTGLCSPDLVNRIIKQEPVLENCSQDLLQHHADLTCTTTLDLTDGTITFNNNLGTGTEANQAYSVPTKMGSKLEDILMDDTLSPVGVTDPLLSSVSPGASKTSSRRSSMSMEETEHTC

[22] = cytotoxicity toward DRD oncogenic fibroblasts, dose response, cell-based, non-viral oncogenic, luminescence (AID 1934); type: functional; details: Homo sapiens
BJ [23] = experiment: cytotoxicity toward BJ-TERT-LT-ST fibroblasts, dose response, cell-based, RAS-independent, luminescence (AID 1935); type: functional; details: Homo sapiens;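 note: BJ fibroblasts immortalized with TERT plus LT and ST oncogenes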

T3 sequence (Q9Y2R2 whole entry): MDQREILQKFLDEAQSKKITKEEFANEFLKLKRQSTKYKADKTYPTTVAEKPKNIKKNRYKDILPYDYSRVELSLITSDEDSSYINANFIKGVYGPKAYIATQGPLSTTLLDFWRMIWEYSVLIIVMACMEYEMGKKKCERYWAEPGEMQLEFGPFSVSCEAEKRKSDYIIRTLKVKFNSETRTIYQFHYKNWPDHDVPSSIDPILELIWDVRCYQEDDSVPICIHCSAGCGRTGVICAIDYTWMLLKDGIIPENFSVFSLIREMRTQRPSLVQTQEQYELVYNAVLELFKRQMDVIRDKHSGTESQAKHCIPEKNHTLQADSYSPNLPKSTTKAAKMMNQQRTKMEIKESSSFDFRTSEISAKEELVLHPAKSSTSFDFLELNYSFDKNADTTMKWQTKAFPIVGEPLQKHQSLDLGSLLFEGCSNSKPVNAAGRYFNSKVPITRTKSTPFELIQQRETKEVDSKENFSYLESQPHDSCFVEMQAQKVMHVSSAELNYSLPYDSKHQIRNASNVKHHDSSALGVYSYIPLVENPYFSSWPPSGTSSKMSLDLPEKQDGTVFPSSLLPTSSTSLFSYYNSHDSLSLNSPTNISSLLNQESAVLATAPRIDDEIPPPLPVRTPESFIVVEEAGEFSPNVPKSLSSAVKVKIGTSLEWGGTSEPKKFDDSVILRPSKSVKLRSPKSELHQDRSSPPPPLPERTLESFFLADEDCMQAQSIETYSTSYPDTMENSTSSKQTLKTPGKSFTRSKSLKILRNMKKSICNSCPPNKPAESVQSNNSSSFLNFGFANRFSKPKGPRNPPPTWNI
Sequence of Dual specificity protein phosphatase 6 (Q64346 whole entry): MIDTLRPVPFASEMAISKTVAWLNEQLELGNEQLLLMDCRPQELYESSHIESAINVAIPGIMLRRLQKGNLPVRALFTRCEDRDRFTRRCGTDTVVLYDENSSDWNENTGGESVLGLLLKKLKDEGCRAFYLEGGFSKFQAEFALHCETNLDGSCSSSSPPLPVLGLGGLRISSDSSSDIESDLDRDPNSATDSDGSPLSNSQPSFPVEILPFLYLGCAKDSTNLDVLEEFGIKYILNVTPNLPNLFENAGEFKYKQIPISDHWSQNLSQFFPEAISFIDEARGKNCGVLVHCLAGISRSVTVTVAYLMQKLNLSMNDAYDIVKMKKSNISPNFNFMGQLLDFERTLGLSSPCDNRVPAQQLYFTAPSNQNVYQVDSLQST
Sequence of Tyrosine-protein phosphatase non-receptor type 12 (Q05209 whole entry): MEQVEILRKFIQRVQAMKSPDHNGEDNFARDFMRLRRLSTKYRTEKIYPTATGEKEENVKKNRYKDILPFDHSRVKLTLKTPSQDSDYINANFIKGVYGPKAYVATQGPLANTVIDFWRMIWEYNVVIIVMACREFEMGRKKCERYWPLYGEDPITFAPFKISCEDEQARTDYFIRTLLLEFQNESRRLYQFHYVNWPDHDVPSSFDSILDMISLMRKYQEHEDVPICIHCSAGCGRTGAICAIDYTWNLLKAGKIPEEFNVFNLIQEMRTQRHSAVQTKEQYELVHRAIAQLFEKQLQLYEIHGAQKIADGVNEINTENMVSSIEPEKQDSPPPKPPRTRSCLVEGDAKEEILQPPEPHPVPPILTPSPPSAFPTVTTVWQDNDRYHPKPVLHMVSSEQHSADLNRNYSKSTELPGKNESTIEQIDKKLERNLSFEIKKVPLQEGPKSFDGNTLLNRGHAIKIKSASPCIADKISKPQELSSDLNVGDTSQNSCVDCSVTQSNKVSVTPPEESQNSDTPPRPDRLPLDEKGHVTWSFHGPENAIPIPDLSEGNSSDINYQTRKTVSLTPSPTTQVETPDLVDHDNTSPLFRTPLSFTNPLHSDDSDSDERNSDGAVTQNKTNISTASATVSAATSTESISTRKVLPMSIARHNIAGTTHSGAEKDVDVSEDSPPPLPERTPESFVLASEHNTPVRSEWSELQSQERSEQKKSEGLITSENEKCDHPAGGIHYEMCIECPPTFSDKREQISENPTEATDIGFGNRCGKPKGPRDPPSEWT
Sequence of DNA damage-inducible transcript 3 protein (P35639 whole entry): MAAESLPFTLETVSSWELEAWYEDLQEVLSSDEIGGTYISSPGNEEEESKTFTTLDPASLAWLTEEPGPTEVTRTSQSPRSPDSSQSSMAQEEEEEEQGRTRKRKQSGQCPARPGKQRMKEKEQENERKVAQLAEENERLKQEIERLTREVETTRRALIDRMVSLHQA
Sequence of CAAX prenyl protease 2 (Saccharomyces cerevisiae S288c, UniProt Q03530) (Q03530 whole entry): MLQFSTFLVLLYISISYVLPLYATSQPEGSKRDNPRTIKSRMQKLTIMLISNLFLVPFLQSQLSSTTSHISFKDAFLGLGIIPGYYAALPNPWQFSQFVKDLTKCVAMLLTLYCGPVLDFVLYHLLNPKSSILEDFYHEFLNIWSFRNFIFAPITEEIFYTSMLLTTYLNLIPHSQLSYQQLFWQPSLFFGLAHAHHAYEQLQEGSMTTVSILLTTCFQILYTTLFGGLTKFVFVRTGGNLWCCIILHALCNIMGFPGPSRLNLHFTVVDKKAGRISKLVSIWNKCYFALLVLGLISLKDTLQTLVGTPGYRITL
Sequence of Trypsin (P00761 whole entry): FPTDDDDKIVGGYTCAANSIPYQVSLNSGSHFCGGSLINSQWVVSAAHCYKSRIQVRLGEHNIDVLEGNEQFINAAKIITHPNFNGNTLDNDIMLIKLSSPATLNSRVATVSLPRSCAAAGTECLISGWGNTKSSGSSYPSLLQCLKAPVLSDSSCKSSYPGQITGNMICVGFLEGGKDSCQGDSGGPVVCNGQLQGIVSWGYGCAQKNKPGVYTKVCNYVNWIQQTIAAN
Sequence of Envelope glycoprotein gp160 (Q6QLK5 whole entry, the tested form may be a part): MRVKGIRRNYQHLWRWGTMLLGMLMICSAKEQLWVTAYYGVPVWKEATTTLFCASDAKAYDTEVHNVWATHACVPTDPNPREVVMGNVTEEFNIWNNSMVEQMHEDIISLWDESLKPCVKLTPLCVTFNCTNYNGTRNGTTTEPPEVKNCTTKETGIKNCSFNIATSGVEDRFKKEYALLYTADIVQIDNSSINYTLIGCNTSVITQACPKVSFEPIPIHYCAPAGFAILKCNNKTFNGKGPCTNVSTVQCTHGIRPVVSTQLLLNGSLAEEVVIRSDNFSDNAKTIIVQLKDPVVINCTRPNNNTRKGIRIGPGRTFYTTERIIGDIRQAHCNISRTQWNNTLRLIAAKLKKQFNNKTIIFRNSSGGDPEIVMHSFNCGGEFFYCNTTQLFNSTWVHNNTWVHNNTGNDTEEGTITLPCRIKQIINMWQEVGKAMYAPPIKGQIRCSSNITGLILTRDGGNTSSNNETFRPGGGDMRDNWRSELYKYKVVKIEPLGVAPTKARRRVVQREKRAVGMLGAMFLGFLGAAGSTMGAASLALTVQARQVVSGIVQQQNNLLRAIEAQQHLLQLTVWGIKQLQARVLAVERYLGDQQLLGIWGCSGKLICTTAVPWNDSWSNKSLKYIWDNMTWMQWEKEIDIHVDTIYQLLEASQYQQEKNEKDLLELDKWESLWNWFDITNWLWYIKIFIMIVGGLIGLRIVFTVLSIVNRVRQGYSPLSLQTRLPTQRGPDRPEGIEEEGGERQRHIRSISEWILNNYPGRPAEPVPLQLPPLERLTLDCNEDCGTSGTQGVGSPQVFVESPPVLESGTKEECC
Sequence of UDP-galactopyranose mutase (P9WIQ1 whole entry): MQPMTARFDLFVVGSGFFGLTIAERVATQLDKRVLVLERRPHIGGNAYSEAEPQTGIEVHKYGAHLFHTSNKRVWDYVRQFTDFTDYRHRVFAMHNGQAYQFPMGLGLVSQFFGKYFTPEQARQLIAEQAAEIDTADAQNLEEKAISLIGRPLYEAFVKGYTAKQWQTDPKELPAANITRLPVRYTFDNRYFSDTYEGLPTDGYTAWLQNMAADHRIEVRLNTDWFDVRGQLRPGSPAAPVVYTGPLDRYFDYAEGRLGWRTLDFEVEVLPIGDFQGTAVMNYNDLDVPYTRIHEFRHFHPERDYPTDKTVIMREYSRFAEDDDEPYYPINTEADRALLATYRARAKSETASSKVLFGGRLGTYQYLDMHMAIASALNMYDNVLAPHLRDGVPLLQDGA
Sequence of CAAX prenyl protease 2 (Homo sapiens, UniProt Q9Y256) (Q9Y256 whole entry): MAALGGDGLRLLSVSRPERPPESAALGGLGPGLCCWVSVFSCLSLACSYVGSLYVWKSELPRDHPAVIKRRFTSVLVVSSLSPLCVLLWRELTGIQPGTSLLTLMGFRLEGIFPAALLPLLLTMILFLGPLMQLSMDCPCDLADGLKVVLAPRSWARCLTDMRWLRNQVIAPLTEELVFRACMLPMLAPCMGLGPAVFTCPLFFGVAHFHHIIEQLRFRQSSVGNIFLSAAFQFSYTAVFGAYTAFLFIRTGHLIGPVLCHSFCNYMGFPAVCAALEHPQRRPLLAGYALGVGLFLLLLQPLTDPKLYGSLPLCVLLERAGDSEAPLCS

## CC1CC(C)CN(c2ncc3c(n2)CC(c2ccccc2Cl)CC3=O)C1 (centres undefined)
[1]
  EC50: 7.25 µM (active)
[2]
  AC50: 4.15 µM (active)
Streptococcus [3]
  EC50: > 150 µM (not active)
Streptococcus [4]
  EC50: > 500 µM (not active)
[5]
  AC50: 30.2 µM (active)
Streptokinase A
  EC50: 10.2 µM (active)

## CCCCCCNC(=O)C(C#N)c1nc2ccccc2nc1N1CCOCC1 (centres undefined)
[6]
  AC50: 70 µM (active)

## CC(C)(Oc1ccc2sc3ccccc3c2c1)C(=O)O
[7]
  IC50: 0.45 µM (active)
[8]
  IC50: > 99 µM (inactive)
[9]
  IC50: 9.45 µM (active)
[10]
  IC50: 77.5 µM (active)
[11]
  IC50: 30.2 µM (active)
[12]
  IC50: 83.8 µM (active)

## COc1ccc(-c2cc([C@H]3[C@@H]4C=CCC[C@@]4(C)C(=O)N3Cc3ccccc3)ccc2F)cc1
[2]
  AC50: 3.42 µM (active)
Escherichia coli
  AC50: 121 µM (active)

## O=C(O)CCN1C(=O)/C(=C\c2ccc(OCc3ccccc3)c(OCc3ccccc3)c2)SC1=S
[13]
  IC50: 10.2 µM (active)
[14]
  EC50: 18.7 µM (active)

## CCN(CC)c1ccc(/C=N/NC(=S)NCc2ccc(OC)cc2)cc1
CAAX prenyl protease 2 [15]
  AC50: 13.6 µM (active)
Trypsin
  AC50: 7.25 µM (active)
CAAX prenyl protease 2 [16]
  AC50: 24.8 µM (active)

## O=C(N/N=C/c1ccccc1Cl)c1[nH]nc2c1CCCC2
X-box-binding protein 1
  Absolute IC50 (XBP1): 10 µM
BJ [17]
  EC50: 16.4 µM (active)
BJ [18]
  EC50: 18.2 µM (active)
A-375
  AC50: 48.5 µM (active)
[19]
  EC50: 16 µM (active)
[20]
  Absolute IC50 (CHOP): 10 µM
[21]
  AC50: 7.97 µM (active)
[22]
  EC50: 15.8 µM (active)
BJ [23]
  EC50: > 150 µM (inconclusive)
